Patent US5422350A, “Nitrogen substituted acridine and cytochrome P450 inhibitors and methods of use” (priority 1992, dated 1995)
Where two headings read alike, the source gives them in different places.

Experiments:
[1] = Single-dose pharmacokinetic and metabolic disposition study of [14C]tacrine HCl in human male volunteers; assay type: in vivo; conditions: for mean cumulative fecal recovery of 14C activity / mean cumulative urinary recovery of 14C activity / mean total recovery: 5760 min
Description: Plasma and red blood cells (RBC) were collected predose and for 48 hours postdose. Urine and feces were collected predose and for 96 hours postdose. Urine and plasma samples were analyzed directly by liquid scintillation spectrometry while RBC and fecal samples were solubilized prior to counting. […] Metabolic profiling of urine was performed by HPLC radioactivity detection. Metabolites were identified by HPLC/photodiode array/mass spectrometry.

[2] = Clinical drug interaction study, tacrine with cimetidine; assay type: in vivo, human; conditions: 40 mg tacrine with 300-mg four times a day cimetidine vs tacrine alone
Excerpt: A. Somogyi and M. Muirhead, "Pharmacokinetic Interactions of Cimetidine", CLIN. PHARMACOKIN., Vol. 12, pp. 321-366 (1987).

[3] = Description: (§1) Total reaction volume was 3 mL. Reactions were stopped by freezing in liquid nitrogen or dry-ice acetone. […] D. J. Waxman and L. Axaroff, "Phenobarbital induction of cytochrome P-450 Gene Expression", BIOCHEM J, Vol. 281, pp. 577-592 (1992); P. Soucek and I. Gut, supra.
P4501A2 = conditions: co-incubation with tacrine
Description: as §1

[4] = In vitro metabolism of 14C-tacrine in rat liver microsomes; conditions: for TAC: w/out NADPH
Description: as §1

[5] = Irreversible protein binding of 14C-tacrine-derived radioactivity, human liver microsomes
Description: as §1
C. N. Martin and R. C. Garner: "Covalent Binding In Vitro and In Vivo" in BIOCHEMICAL TOXICOLOGY: A PRACTICAL APPROACH, Eds. K. Snell and B. Mullock, IRL, Wash. D.C. pp. 109-126 (1987).

P450 1A2 [6] = molecular target: T1, P450 1A2 (Homo sapiens, UniProt P05177); test: in vitro; conditions: human, microsomes
T1 sequence (P05177 2-516 limits assumed): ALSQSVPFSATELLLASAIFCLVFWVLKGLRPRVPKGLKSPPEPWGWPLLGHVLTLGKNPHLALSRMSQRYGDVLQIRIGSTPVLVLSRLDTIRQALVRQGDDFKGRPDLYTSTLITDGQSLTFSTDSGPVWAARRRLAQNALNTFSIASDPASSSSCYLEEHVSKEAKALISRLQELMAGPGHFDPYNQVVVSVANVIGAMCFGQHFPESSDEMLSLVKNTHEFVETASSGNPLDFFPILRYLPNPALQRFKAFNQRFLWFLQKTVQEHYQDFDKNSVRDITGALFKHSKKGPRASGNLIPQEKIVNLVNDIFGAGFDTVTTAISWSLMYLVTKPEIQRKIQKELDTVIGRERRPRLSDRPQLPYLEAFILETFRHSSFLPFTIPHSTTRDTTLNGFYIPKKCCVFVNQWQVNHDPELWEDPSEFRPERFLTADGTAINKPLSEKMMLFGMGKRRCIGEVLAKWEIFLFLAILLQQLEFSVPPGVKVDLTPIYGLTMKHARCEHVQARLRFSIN
Description: (§2) PHARMACOL., Vol. 42, pp. 767-772 (1990) was conducted. […] The effect of various enoxacin concentrations (8, 20, and 50 μM) on the extent of irreversible binding was examined in a separate study.

P450 1A2 [7] = test: in vitro
Description: as §2

rat hepatocytes = test: Irreversible binding of tacrine-derived radioactivity to rat hepatocytes with chloroquine; assay type: in vitro ADME; conditions: Tacrine alone
Excerpt: D. J. Back, H. S. Purba, C. […] PHARMACOL., Vol. 32, pp. 257-264 (1983). Ethoxyresorufin O-deethylation is selectively catalyzed by P450 1A2. C. Gleizes, C. […] PHARMACOL. VOL. 41, pp. 1813-1820 (1991).

[8] = cited from earlier work
[9] = Human Prep (letter not given), w/NADPH, 60 min
[10] = MC induced Rat, w/NADPH, 60 min
[11] = Noninduced Rat, w/NADPH, 60 min
[12] = PB induced Rat, w/NADPH, 60 min

Cl.Nc1c2c(nc3ccccc13)CCCC2.O [Tacrine, 1,2,3,4-tetrahydro-9-acridinamine monohydrate monohydrochloride]
Mean AUC(O-tldc) for tacrine, 1-, 2-, and 4-hydroxytacrine as part of total mean plasma radioactivity AUC(O-tldc) ([1]; 10 mg oral): approximately 3%
Mean AUC(O-tldc) for tacrine, 1-, 2-, and 4-hydroxytacrine as part of total mean plasma radioactivity AUC(O-tldc) ([1]; 40 mg oral): ~4%
mean cumulative fecal recovery of 14C activity ([1]; 10-mg oral): 23.2 % of dose
mean cumulative urinary recovery of 14C activity ([1]; 10-mg oral): 56.5 % of dose
mean total recovery ([1]; 10-mg oral): 79.4%
mean plasma total radioactivity AUC(O-tldc), dose proportionality ([1]; 10 and 40 mg oral): increased in a dose proportional manner
mean AUC(O-tldc), dose proportionality ([1]; 10 and 40 mg oral, plasma): increased greater than dose proportionally
difference in metabolic profiles between dose levels ([1]; 10 vs 40 mg, urine): No apparent differences
mean cumulative fecal recovery of 14C activity ([1]; 40-mg oral): 20.8%
mean cumulative urinary recovery of 14C activity ([1]; 40-mg oral): 54.1%
mean total recovery ([1]; 40-mg oral): 74.9%
Tmax ([1]; human, plasma, po, read-out: Time to maximum plasma concentration (tmax)): ~2 h
polar radioactive components, of urinary radioactivity ([1]; urine through 24 hours): 67%
unchanged drug excreted in urine ([1]; urine through 24 hours): only trace amounts of unchanged drug excreted
higher plasma concentrations [2]: approximately 40%
1-OH [3, 9]: 0.750 nmole equivalents
4-OH [3, 9]: 0.039 nmole equivalents
POLAR UNKS [3, 9]: 0.039 nmole equivalents
UNKS [3, 9]: 0.146 nmole equivalents
TAC ([3]; Human Prep (letter not given), w/out NADPH, 60 min): 1.34 nmole equivalents
1-OH ([3]; Human Prep C, w/NADPH, 60 min): 0.599 nmole equivalents
2-OH ([3]; Human Prep C, w/NADPH, 60 min): 0.095 nmole equivalents
POLAR UNKS ([3]; Human Prep C, w/NADPH, 60 min): 0.035 nmole equivalents
UNKS ([3]; Human Prep C, w/NADPH, 60 min): 0.139 nmole equivalents
TAC ([3]; Human Prep C, w/out NADPH, 60 min): 1.07 nmole equivalents
1-OH ([3]; Human Prep D, w/NADPH, 60 min): 0.201 nmole equivalents
TAC ([3]; Human Prep D, w/NADPH, 60 min): 0.803 nmole equivalents
TAC ([3]; Human Prep D, w/out NADPH, 60 min): 1.086 nmole equivalents
extent of metabolism ([3]; human liver preparation D): only partial tacrine turnover
major product detected ([3]; human liver preparations): 1-hydroxytacrine with minor amounts of the 2- and 4-hydroxytacrine regioisomers
extent of metabolism ([3]; human liver preparations B and C, within 60 min): completely metabolized
effect on 1-hydroxytacrine metabolism by P4501A2 (P4501A2): inhibited
1-OH ([4]; I induced Rat, w/NADPH, 60 min): 1.57 nmole equivalents
POLAR UNKS ([4]; I induced Rat, w/NADPH, 60 min): 0.083 nmole equivalents
TAC ([4]; I induced Rat, 60 min): 1.14 nmole equivalents
1-OH [4, 10]: 0.790 nmole equivalents
4-OH [4, 10]: 0.018 nmole equivalents
POLAR UNKS [4, 10]: 0.009 nmole equivalents
UNKS [4, 10]: 0.091 nmole equivalents
TAC ([4]; MC induced Rat, 60 min): 1.16 nmole equivalents
1-OH [4, 11]: 0.994 nmole equivalents
2-OH [4, 11]: 0.088 nmole equivalents
POLAR UNKS [4, 11]: 0.022 nmole equivalents
TAC ([4]; Noninduced Rat, 60 min): 1.22 nmole equivalents
1-OH [4, 12]: 1.15 nmole equivalents
2-OH [4, 12]: 0.144 nmole equivalents
POLAR UNKS [4, 12]: 0.026 nmole equivalents
TAC ([4]; PB induced Rat, 60 min): 1.20 nmole equivalents
1-hydroxytacrine produced ([4]; rat vs human preparations): more 1-hydroxytacrine produced as compared to human preparations
detection of a hydroxylamine metabolite [5]: unsuccessful
irreversible binding of 14C-tacrine-derived radioactivity to microsomal protein [5]: no detectable
rate and products of metabolism [5]: rapidly metabolized not only to 1-hydroxytacrine but also to 7-hydroxytacrine
Km (P450 1A2 [6]): < 5 µM
irreversible binding of derived radioactivity to microsomal protein (P450 1A2 [7]; Table 6, deletion of NADPH): no irreversible
Tacrine equivalents irreversibly bound to 1 mg microsomal protein (P450 1A2 [7]; Table 6, tacrine 0.3 μM, enoxacin 0.0, 20 min, N = 3, SD): 0.040
Tacrine equivalents irreversibly bound to 1 mg microsomal protein (P450 1A2 [7]; tacrine 0.5 μM alone, 5 min, N = 3, SD): 0.022 ± 0.005 nmol
Tacrine equivalents irreversibly bound to 1 mg microsomal protein (P450 1A2 [7]; tacrine 0.5 μM alone, 10 min): 0.048 ± 0.006 nmol
Tacrine equivalents irreversibly bound to 1 mg microsomal protein (P450 1A2 [7]; tacrine 0.5 μM alone, 20 min): 0.096 ± 0.006 nmol
Tacrine equivalents irreversibly bound to 1 mg microsomal protein (P450 1A2 [7]; tacrine 0.5 μM alone, 45 min): 0.148 ± 0.024 nmol
tacrine-equivalents bound per mg hepatic protein (rat hepatocytes; 5 min, N = 2): 0.020 nmol
tacrine-equivalents bound per mg hepatic protein (rat hepatocytes; 15 min): 0.037 nmol
tacrine-equivalents bound per mg hepatic protein (rat hepatocytes; 30 min): 0.061 nmol
tacrine-equivalents bound per mg hepatic protein (rat hepatocytes; 60 min): 0.128 nmol
tacrine-equivalents bound per mg hepatic protein (rat hepatocytes; 90 min): 0.183 nmol
tacrine-equivalents bound per mg hepatic protein (rat hepatocytes; 120 min): 0.294 nmol
tacrine-equivalents bound per mg hepatic protein (rat hepatocytes; 180 min): 0.377 nmol
extent of metabolism ([8]; animals and man): extensively metabolized
formation of THA metabolites in serum ([8]; patients given THA): very rapid formation of THA metabolites
liver enzymes after administration ([8]; patients): elevations of liver enzymes are found in some patients
